How the values were obtained:
[1] = Measurement of Log k′ by HPLC, PNP5 or PNP6 heterocomplexes; assay type: physicochemical; settings: HPLC C18, methanol/phosphate buffer (pH 7.4, 0.02M), 1.0 mL/min; extrapolated to 0% organic solvent
Method: Log k′o values, measured at various compositions of the mobile phase, were determind for the ^99mTc(N) heterocomplexes obtained using PNP5 or PNP6 as a bisphosphinoamine compound. The analysis of the relationship between Log k′o values and the mobile-phase composition yielded extrapolated Log k′ values as a measure of the partitioning between the hydrophobic stationary phase and water. The Log k′ values were extrapolated from the linear part of the curve.
TLC chromatography was carried out on silica-gel plates and using the mixture ethanol/chloroform/toluene/[NH4][CH3COO] (0.5 M) (5:3:3:0.5) as mobile phase. […] HPLC analysis was performed on a Beckman System Gold instrument equipped with a Programmable Solvent Module 126, a scanning detector Module 166 and a radioisotope detector Module 170. A C18 reversed-phase precolumn (Ultrasphere Beckman, 4.6×45 mm), a C18 reversed-phase column (Ultrasphere Beckman, 4.6×250 mm) and a 100-μL loop were used. The mobile phase was methanol in various mixtures (% v/v) with a phosphate buffer (pH=7.4, 0.02M) at a flow rate of 1.0 mL min^−1. Before injection, all solutions were purified using a CM Sep-Pak cartridge. […]

[2] = Biodistribution of the 99mTc(N) heterocomplexes in rats (organ uptake, heart accumulation, heart/lung and heart/liver ratios); assay type: in vivo, female Sprague-Dawley rats
How it was run: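 Female Sprague-Dawley rats (200–250 g, n=3), ketamine/xylazine anaesthesia, got 300–370 kBq of each purified heterocomplex in pH 7.4 phosphate buffer (10% ethanol) via the jugular vein. They were killed at several post-injection times. Heart blood and washed, weighed organs were gamma-counted, taking whole blood as 6.5% of body weight.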

SMILES: CCOCCN1CC[P](CCCOC)(CCCOC)[99Tc+]2(#[N])([S]C(N(CCOCC)CCOCC)=[S]2)[P](CCCOC)(CCCOC)CC1 [[^99mTc(N) (PNP5) (DBODC)]^+]
- LOG k′ [1]: 3.69
- Biodistribution in rats: Adrenal glands ([2]; 0 min post injection): 2.87 % dose/g
- Biodistribution in rats: Blood ([2]; 0 min post injection): 6.65 % dose/g
- Biodistribution in rats: Brain ([2]; 0 min post injection): 0.45 % dose/g
- Biodistribution in rats: Heart ([2]; 0 min post injection): 5.01 % dose/g
- Biodistribution in rats: Intestine ([2]; 0 min post injection): 1.71 % dose/g
- Biodistribution in rats: Kidneys ([2]; 0 min post injection): 3.71 % dose/g
- Biodistribution in rats: Liver ([2]; 0 min post injection): 0.82 % dose/g
- Biodistribution in rats: Lungs ([2]; 0 min post injection): 6.58 % dose/g
- Biodistribution in rats: Muscle ([2]; 0 min post injection): 0.09 % dose/g
- Biodistribution in rats: Spleen ([2]; 0 min post injection): 1.75 % dose/g
- Biodistribution in rats: Submax. glands ([2]; 0 min post injection): 0.16 % dose/g
- Biodistribution in rats: Adrenal glands ([2]; 2 min post injection): 3.95 % dose/g
- Biodistribution in rats: Blood ([2]; 2 min post injection): 0.11 % dose/g
- Biodistribution in rats: Brain ([2]; 2 min post injection): 0.03 % dose/g
- Biodistribution in rats: Heart ([2]; 2 min post injection): 3.94 % dose/g
- Biodistribution in rats: Intestine ([2]; 2 min post injection): 7.97 % dose/g
- Biodistribution in rats: Kidneys ([2]; 2 min post injection): 14.69 % dose/g
- Biodistribution in rats: Liver ([2]; 2 min post injection): 2.66 % dose/g
- Biodistribution in rats: Lungs ([2]; 2 min post injection): 0.99 % dose/g
- Biodistribution in rats: Muscle ([2]; 2 min post injection): 0.20 % dose/g
- Biodistribution in rats: Spleen ([2]; 2 min post injection): 2.68 % dose/g
- Biodistribution in rats: Submax. glands ([2]; 2 min post injection): 1.77 % dose/g
- Biodistribution in rats: Adrenal glands ([2]; 10 min post injection): 3.73 % dose/g
- Biodistribution in rats: Blood ([2]; 10 min post injection): 0.03 % dose/g
- Biodistribution in rats: Brain ([2]; 10 min post injection): 0.01 % dose/g
- Biodistribution in rats: Heart ([2]; 10 min post injection): 3.69 % dose/g
- Biodistribution in rats: Intestine ([2]; 10 min post injection): 9.04 % dose/g
- Biodistribution in rats: Kidneys ([2]; 10 min post injection): 9.16 % dose/g
- Biodistribution in rats: Liver ([2]; 10 min post injection): 1.61 % dose/g
- Biodistribution in rats: Lungs ([2]; 10 min post injection): 0.88 % dose/g
- Biodistribution in rats: Muscle ([2]; 10 min post injection): 0.21 % dose/g
- Biodistribution in rats: Spleen ([2]; 10 min post injection): 1.79 % dose/g
- Biodistribution in rats: Submax. glands ([2]; 10 min post injection): 1.79 % dose/g
- Biodistribution in rats: Adrenal glands ([2]; 20 min post injection): 3.00 % dose/g
- Biodistribution in rats: Blood ([2]; 20 min post injection): 0.02 % dose/g
- Biodistribution in rats: Brain ([2]; 20 min post injection): 0.01 % dose/g
- Biodistribution in rats: Heart ([2]; 20 min post injection): 3.63 % dose/g
- Biodistribution in rats: Intestine ([2]; 20 min post injection): 9.63 % dose/g
- Biodistribution in rats: Kidneys ([2]; 20 min post injection): 6.58 % dose/g
- Biodistribution in rats: Liver ([2]; 20 min post injection): 0.96 % dose/g
- Biodistribution in rats: Lungs ([2]; 20 min post injection): 0.57 % dose/g
- Biodistribution in rats: Muscle ([2]; 20 min post injection): 0.17 % dose/g
- Biodistribution in rats: Spleen ([2]; 20 min post injection): 1.41 % dose/g
- Biodistribution in rats: Submax. glands ([2]; 20 min post injection): 1.57 % dose/g
- Biodistribution in rats: Adrenal glands ([2]; 30 min post injection): 3.36 % dose/g
- Biodistribution in rats: Blood ([2]; 30 min post injection): 0.02 % dose/g
- Biodistribution in rats: Brain ([2]; 30 min post injection): 0.01 % dose/g
- Biodistribution in rats: Heart ([2]; 30 min post injection): 3.73 % dose/g
- Biodistribution in rats: Intestine ([2]; 30 min post injection): 6.70 % dose/g
- Biodistribution in rats: Kidneys ([2]; 30 min post injection): 6.70 % dose/g
- Biodistribution in rats: Liver ([2]; 30 min post injection): 0.72 % dose/g
- Biodistribution in rats: Lungs ([2]; 30 min post injection): 0.64 % dose/g
- Biodistribution in rats: Muscle ([2]; 30 min post injection): 0.19 % dose/g
- Biodistribution in rats: Spleen ([2]; 30 min post injection): 0.92 % dose/g
- Biodistribution in rats: Submax. glands ([2]; 30 min post injection): 1.88 % dose/g
- Biodistribution in rats: Adrenal glands ([2]; 60 min post injection): 4.17 % dose/g
- Biodistribution in rats: Blood ([2]; 60 min post injection): 0.01 % dose/g
- Biodistribution in rats: Brain ([2]; 60 min post injection): 0.01 % dose/g
- Biodistribution in rats: Heart ([2]; 60 min post injection): 3.76 % dose/g
- Biodistribution in rats: Intestine ([2]; 60 min post injection): 6.52 % dose/g
- Biodistribution in rats: Kidneys ([2]; 60 min post injection): 5.73 % dose/g
- Biodistribution in rats: Liver ([2]; 60 min post injection): 0.20 % dose/g
- Biodistribution in rats: Lungs ([2]; 60 min post injection): 0.46 % dose/g
- Biodistribution in rats: Muscle ([2]; 60 min post injection): 0.21 % dose/g
- Biodistribution in rats: Spleen ([2]; 60 min post injection): 0.41 % dose/g
- Biodistribution in rats: Submax. glands ([2]; 60 min post injection): 1.84 % dose/g
- Biodistribution in rats: Adrenal glands ([2]; 120 min post injection): 3.44 % dose/g
- Biodistribution in rats: Blood ([2]; 120 min post injection): 0.01 % dose/g
- Biodistribution in rats: Brain ([2]; 120 min post injection): 0.00 % dose/g
- Biodistribution in rats: Heart ([2]; 120 min post injection): 3.31 % dose/g
- Biodistribution in rats: Intestine ([2]; 120 min post injection): 6.57 % dose/g
- Biodistribution in rats: Kidneys ([2]; 120 min post injection): 3.48 % dose/g
- Biodistribution in rats: Liver ([2]; 120 min post injection): 0.10 % dose/g
- Biodistribution in rats: Lungs ([2]; 120 min post injection): 0.25 % dose/g
- Biodistribution in rats: Muscle ([2]; 120 min post injection): 0.23 % dose/g
- Biodistribution in rats: Spleen ([2]; 120 min post injection): 0.21 % dose/g
- Biodistribution in rats: Submax. glands ([2]; 120 min post injection): 2.09 % dose/g
